Where two headings read alike, the source gives them in different places.
System: C. elegans
Assay: microbe, parasite or virus in culture
Details: Caenorhabditis elegans
[1] = 0 h, read-out: Percentage of motility inhibition 0 h, Table S2, C. elegans SS assay, 110 μM, 0 h, averages of 4 data points
[2] = 24 h, read-out: Percentage of motility inhibition 24 h, Table S2, C. elegans SS assay, 110 μM, 24 h, averages of 4 data points
[3] = 0 h, read-out: Percentage of motility inhibition 0 h
[4] = 24 h, read-out: Percentage of motility inhibition 24 h

Row | Structure (SMILES) | inhibition at 110 µM [1] [%] | inhibition at 110 µM [2] [%] | inhibition at 110 µM [3] [%] | inhibition at 110 µM [4] [%]
1 | CC1=CC(=O)[C@@H]2C[C@H]1C2(C)C [Verbenone] | 4 | 4 | – | –
2 | C/C=C(\C)C(=O)N[C@@H](c1ccccc1)[C@@H](O)C(=O)O[C@H]1C[C@@]2(O)[C@@H](OC(=O)c3ccccc3)[C@@H]3[C@]4(OC(C)=O)CO[C@@H]4C[C@H](O)[C@@]3(C)C(=O)[C@H](OC(C)=O)C(=C1C)C2(C)C [Cephalomannine] | 31 | 34 | – | –
3 | CC1CCc2c(N3CCC(O)CC3)c(F)cc3c(=O)c(C(=O)O)cn1c23 (stereo not shown) [Nadifloxacin] | 0 | 0 | – | –
4 | O=C(O)c1cn(C2CC2)c2cc(N3CCNCC3)c(F)cc2c1=O [Ciprofloxacin] | 33 | 2 | – | –
5 | COc1cc2c(cc1Cc1cccc(Cl)c1F)c(=O)c(C(=O)O)cn2[C@H](CO)C(C)C [Elvitegravir] | 23 | 48 | – | –
6 | O=C1CN(/N=C/C=C/c2ccc([N+](=O)[O-])o2)C(=O)N1 [Furagin] | 6 | 0 | – | –
7 | C[C@H]1COc2c(N3CCN(C)CC3)c(F)cc3c(=O)c(C(=O)O)cn1c23 [Levofloxacin] | 9 | 10 | – | –
8 | C[C@@H]1CC[C@@]2(NC1)O[C@H]1C[C@H]3[C@@H]4CC=C5C[C@@H](O[C@@H]6O[C@H](CO)[C@H](O)[C@H](O[C@@H]7O[C@H](CO)[C@@H](O)[C@H](O)[C@H]7O)[C@H]6O[C@@H]6O[C@@H](C)[C@H](O)[C@@H](O)[C@H]6O)CC[C@]5(C)[C@H]4CC[C@]3(C)[C@H]1[C@@H]2C [Solasonine] | 0 | 0 | – | –
9 | COc1ccc(-c2coc3cc(O)c(OC)c(O)c3c2=O)cc1 [Irisolidone] | 0 | 0 | – | –
10 | Nc1nc(=O)n([C@@H]2CS[C@H](CO)O2)cc1F [Emtricitabine] | 26 | 32 | – | –
11 | COC(=O)C1=CC[C@@]23CC[C@@H]([C@@](C)(/C=C/C=C(\C)C(=O)O)OC2=O)[C@@]3(OC(C)=O)CC1 [Pseudolaric Acid B] | – | – | 0 | 9
12 | COc1ccc2c(OC)c3ccoc3nc2c1OC [Skimmianine] | 0 | 15 | – | –
13 | COC(=O)N[C@H](C(=O)N1CC2(CC2)C[C@H]1c1nc(-c2ccc3c(c2)C(F)(F)c2cc(-c4ccc5[nH]c([C@@H]6[C@H]7CC[C@H](C7)N6C(=O)[C@@H](NC(=O)OC)C(C)C)nc5c4)ccc2-3)c[nH]1)C(C)C [Ledipasvir] | 25 | 1 | – | –
14 | NC(=O)c1cnccn1 [Pyrazinamide] | 4 | 13 | – | –
15 | C[C@@H]1CN(c2c(F)c(N)c3c(=O)c(C(=O)O)cn(C4CC4)c3c2F)C[C@H](C)N1 [Sparfloxacin] | 37 | 11 | – | –
16 | COc1c(/C=C/C(=O)c2ccc(O)c(CC=C(C)C)c2)ccc(O)c1O [Licochal cone D] | 15 | 0 | – | –
17 | Cc1c([C@H](C)[C@@H]2NC[C@@H](C)C[C@H]2O)ccc2c1C[C@H]1[C@H]2CC=C2C[C@@H](O)CC[C@@]21C [Veratramine] | – | – | 9 | 2
18 | C[C@@H]1O[C@@H](O[C@H]2[C@H](Oc3cc(O)c4c(=O)cc(-c5ccc(O)c(O)c5)oc4c3)O[C@H](CO)[C@@H](O)[C@@H]2O)[C@H](O)[C@H](O)[C@H]1O [Lonicerin] | 2 | 2 | – | –
19 | Cn1nnc(-c2ccc(-c3ccc(N4C[C@H](CO)OC4=O)cc3F)cn2)n1 [Tedizolid] | 20 | 12 | – | –
20 | C=C1C(=O)O[C@@H]2C[C@@]3(C)CCCC(=C)[C@@H]3C[C@H]12 [Isoalantolactone] | 2 | 12 | – | –
21 | OCC1=C[C@@H](O)[C@@H]2C=CO[C@@H](O[C@@H]3O[C@H](CO)[C@@H](O)[C@H](O)[C@H]3O)[C@H]12 [Aucubin] | 10 | 19 | – | –
22 | CCCCC/C=C/C(=O)CCc1ccc(O)c(OC)c1 [Shogaol] | 0 | 5 | – | –
23 | CN1CCc2cc3c(cc2[C@H]1[C@@H]1OC(=O)c2c1ccc1c2OCO1)OCO3 [Bicuculline] | 0 | 8 | – | –
24 | CC(C)=CCc1cc([C@@H]2CC(=O)c3ccc(O)c(CC=C(C)C)c3O2)ccc1O [Glabrol] | 11 | 9 | – | –
25 | CC(C)(C)OC(=O)N[C@H]1CCCCC/C=C\[C@@H]2C[C@@]2(C(=O)NS(=O)(=O)C2CC2)NC(=O)[C@@H]2C[C@@H](OC(=O)N3Cc4cccc(F)c4C3)CN2C1=O [Danoprevir] | 60 | 24 | – | –
26 | Oc1cc(O)c2c(c1)O[C@H](c1ccc(O)c(O)c1)[C@H](O)[C@H]2c1c(O)cc(O)c2c1O[C@H](c1ccc(O)c(O)c1)[C@H](O)[C@H]2c1c(O)cc(O)c2c1O[C@H](c1ccc(O)c(O)c1)[C@H](O)C2 [Procyanidin C1] | 2 | 29 | – | –
27 | COC[C@H]1C[C@@H](c2nc(-c3ccc4c(c3)COc3cc5c(ccc6nc([C@@H]7CC[C@H](C)N7C(=O)[C@@H](NC(=O)OC)C(C)C)[nH]c65)cc3-4)c[nH]2)N(C(=O)[C@H](NC(=O)OC)c2ccccc2)C1 [Velpatasvir] | 19 | 1 | – | –

Row | Structure (SMILES) | inhibition at 110 µM [1] [%] | inhibition at 110 µM [2] [%] | inhibition at 110 µM [3] [%] | inhibition at 110 µM [4] [%]
28 | CC1(C)CC[C@]2(C(=O)O)CC[C@]3(C)C(=CC[C@@H]4[C@@]5(C)C[C@@H](O)[C@H](O)C(C)(C)[C@@H]5CC[C@]43C)[C@@H]2C1 [Maslinic acid] | 0 | 5 | – | –
29 | COc1cc(-c2coc3cc4c(c(OC)c3c2=O)OCO4)cc(OC)c1OC [Irisflorentin] | 26 | 34 | – | –
30 | C=CC(=C)CCC=C(C)C [Myrcene] | 8 | 23 | – | –
31 | O=c1c(-c2ccc(O)cc2)coc2cc(O[C@@H]3O[C@H](CO)[C@@H](O)[C@H](O)[C@H]3O)cc(O)c12 [Genistin] | 29 | 19 | – | –
32 | COc1ccc(-c2coc3cc(O)ccc3c2=O)cc1 [Formononetin] | 6 | 31 | – | –
33 | Cc1ccnc(NS(=O)(=O)c2ccc(N)cc2)n1 [Sulfamerazine] | 12 | 7 | – | –
34 | O=c1cc(-c2ccc(O)c(O)c2)oc2cc(O)cc(O)c12 [Luteolin] | 4 | 0 | – | –
35 | CCCCC[C@H](O)CC(=O)CCc1ccc(O)c(OC)c1 [[6]‐Gingerol] | 1 | 10 | – | –
36 | [H]/N=C(\N/C(=N/[H])Nc1ccc(Cl)cc1)NC(C)C [Proguanil] | 36 | 6 | – | –
37 | O=C(CCc1ccc(O)c(O)c1)NCCCNCCCCNCCCNC(=O)CCc1ccc(O)c(O)c1 [Kukoamine A] | 0 | 32 | – | –
38 | O=Cc1ccc[nH]1 [Pyrrole‐2‐carboxaldehyde] | 0 | 6 | – | –
39 | O=c1ccc2ccccc2o1 [Coumarin] | 12 | 8 | – | –
40 | C[C@@H]1O[C@@H](OC[C@H]2O[C@@H](Oc3c(-c4ccc(O)cc4)oc4cc(O)cc(O)c4c3=O)[C@H](O[C@@H]3O[C@H](CO)[C@H](O)[C@H](O)[C@H]3O)[C@@H](O)[C@@H]2O)[C@H](O)[C@H](O)[C@H]1O [Camelliaside A] | 9 | 10 | – | –
41 | CC1=C[C@H]2Cc3[nH]c(=O)ccc3[C@]3(C1)NCCC[C@H]23 [Huperzine B] | – | – | 18 | 8
42 | CN(C)CCc1ccc(O)cc1 [Hordenine] | 28 | 10 | – | –
43 | C[C@@H]1O[C@@H](O[C@H]2[C@H](O)[C@@H](O)[C@H](OC[C@H]3O[C@@H](OC(=O)[C@]45CCC(C)(C)C[C@H]4C4=CC[C@@H]6[C@@]7(C)C[C@@H](O)[C@H](O)[C@@](C)(CO)[C@@H]7[C@H](O)C[C@@]6(C)[C@]4(C)CC5)[C@H](O)[C@@H](O)[C@@H]3O)O[C@@H]2CO)[C@H](O)[C@H](O)[C@H]1O [Asiaticoside B] | 0 | 5 | – | –
44 | COc1ccc(NS(=O)(=O)c2ccc(N)cc2)nn1 [Sulfamethoxypyridazine] | 2 | 8 | – | –
45 | CC(=O)Oc1cccc2c1C(=O)c1c(OC(C)=O)cc(C(=O)O)cc1C2=O [Diacerein] | 0 | 8 | – | –
46 | CC1CCc2cc(F)cc3c(=O)c(C(=O)O)cn1c23 (stereo not shown) [Flumequine] | 20 | 21 | – | –
47 | O=c1cc(-c2ccc(O)cc2)oc2cc(O)c([C@@H]3O[C@H](CO)[C@@H](O)[C@H](O)[C@H]3O)c(O)c12 [Isovitexin] | 11 | 6 | – | –
48 | CC1=C[C@H]2[C@@]3(O)[C@H](C)[C@@H](O)[C@]4(O)[C@H]([C@@H]3C=C(CO)C[C@]2(O)C1=O)C4(C)C [Phorbol] | 0 | 6 | – | –
49 | CC(=O)Oc1ccccc1C(=O)Nc1ncc([N+](=O)[O-])s1 [Nitazoxanide] | 51 | 49 | – | –
50 | COc1ccc([C@@H](O)CNC(=O)/C=C/c2ccccc2)cc1 (racemic) [Aegeline] | 4 | 6 | – | –
51 | C=C(C)[C@H](CC=C(C)C)Cc1c(O)cc(OC)c2c1O[C@H](c1ccc(O)cc1O)CC2=O [Kurarinone] | 0 | 0 | – | –
52 | O=c1ccc2nccc3c4ccccc4n1c23 [Canthin‐6‐one] | 0 | 15 | – | –
53 | NC[C@H]1O[C@H](O[C@H]2[C@H](O)[C@@H](O[C@H]3O[C@H](CO)[C@@H](O)[C@H](N)[C@H]3O)[C@H](N)C[C@@H]2N)[C@H](N)[C@@H](O)[C@@H]1O [Bekanamycin] | 23 | 10 | – | –

Source: paper PMC11855827, “High-Throughput Screening of Five Compound Libraries for Anthelmintic Activity and Toxicity Leads to the Discovery of Two Flavonoid Compounds” (International Journal of Molecular Sciences, 2025)
